Laboratory results published in paper PMC7461584, “N-(2′-Hydroxyphenyl)-2-Propylpentanamide (HO-AAVPA) Inhibits HDAC1 and Increases the Translocation of HMGB1 Levels in Human Cervical Cancer Cells” (International Journal of Molecular Sciences, 2020).
Several values for one entry are separate records, joined by “and”; a condition that tells them apart may be missing. Identical values can stand only once. Entries after “also recorded” stand apart in the source; their conditions may differ.

Columns and labels:
HMGB1 in SiHa cells = assay: Localization of HMGB1 by confocal microscopy; assay type: cell-based, human; details: 12 h; for HMGB1 fluorescence intensity: vs DMSO vehicle
Description: A total of 20 × 10^3 cells per well were added to 24-well plates and incubated for 24 h in DMEM with FBS. Then, the cells were washed with phosphate buffered saline (PBS 1X). The groups received the following treatments: VPA at 1.4 and 0.35 mM, HO-AAVPA at 0.2 and 0.005 mM, vehicle (DMSO 0.1%), and incubated for 12 h. After incubation, the cells were fixed with paraformaldehyde (PFA 4%) at 37 °C for 20 min and permeabilized (PBS Tween-Triton 0.5%) for 5 min. Subsequently, the cells were washed and the primary antibody, anti-HMGB1 (GTX101277, GeneTex, Alton Pkwy Irvine, CA, USA), was added at a ratio of 1:1000 and incubated overnight. The secondary antibody, donkey anti-rabbit IgG H&L (Alexa Fluor 647, Thermo Fisher Scientific, México City, Mexico), was added at a ratio of 1:1000 and incubated at 4 °C for 4 h. Finally, the slides were washed with PBS and mounted with Vectashield (Mounting Laboratories, Inc. Burlingame, CA, USA).
The images were collected and analyzed with an Axioskop 2 mot plus confocal fluorescence microscope (Carl Zeiss, Mexico City, Mexico) at EC Plan-Neofluar 20×–40×/0.5 Ph2: LP 650, LP 505.

cervical cancer cells = system: cervical cancer cells; design: method as in PMID 26942921; details: ref [25], cited from earlier work
[1] = design: method as in PMID 32387339, PMID 30236821, PMID 3146521; details: rat model; ref [19],[20],[21]; cited from earlier work
[2] = system: ROS (O2−·) levels in SiHa cells; assay: Quantification of superoxide anion by electronic paramagnetic resonance; assay type: cell-based, human; details: 48 h
Description: The SiHa cells (500 × 10^3) were seeded in a […] dish and kept at 37 °C in a humidified atmosphere with 5% CO2 until they reached 70% confluence. After, the cells were treated with two different concentrations of VPA and HO-AAVPA (1.4 and 0.2 mM) and maintained for 48 h, the experiment was performed in triplicate and used as a control for data comparison with the SiHa cells treated only with medium. Next, the cells were trypsinized and centrifuged at 3000 rpm for 10 min, and the cell pellet was treated with the radical scavenger CM-H (1 hydroxy-3-methoxycarbonyl-2,2, 5,5-tetramethyl pyrrolidine) diluted in Krebs buffer (99 mM NaCl, 4.69 mM KCl, 2.5 mM CaCl2 × 2H2O, 1.2 mM MgSO4 × 7 H2O, 2.5 mM NaHCO3, 1.03 mM KH2PO4, 5.6 mM D-Glucose, and 20 mM Na-HEPES) with sodium diethyldithiocarbamate trihydrate (DETEC; 5 μM) and deferoxamine methane sulfonate salt (DF 25 μM) at a 89:3:8% v/v ratio of Krebs buffer: DETEC:DF. The stock solution of CMH (10 mM) was used to dilute each sample to 0.5 mM. The CM-H solution and the sample preparation were processed inside a nitrogen atmosphere chamber. The samples containing CM-H were incubated for 30 min at 37 °C with constant shaking. After the samples were centrifuged at 3000 rpm for 15 min, 50 µL of the supernatant was taken up with capillaries (Corning, Glendale, CA, USA) inside the nitrogen chamber, and each of the capillaries were sealed on both sides to determine the EPR measurements.
The measurements of O2^−· formation were performed in a Bruker e-scan spectrometer with the following parameters recorded: magnetic field 3490 G, window: 60 G, amplitude: 1.5 G, gain: 56.4, power: 0.0155 mW; and frequency: 9.743 GHz. WinEPR Acquisition software was used to analyze the results. The intensity of each sample was measured and normalized to the cell number for each sample. Finally, the result was expressed as the intensity for 10,000 cells.

HDAC1 = target: T1, HDAC1 (Homo sapiens, UniProt Q13547); assay: Fluor de LYS HDAC1 inhibitory activity assay; assay type: biochemical; details: 250 ng/well, 37 °C, 5 µM substrate; mean ± SE
T1 construct: purchased Enzo Life Sciences BML-AK511

HDAC8 = target: T2, HDAC8 (Homo sapiens, UniProt Q9BY41); assay: Fluor de LYS HDAC8 inhibitory activity assay; assay type: biochemical
T2 construct: purchased Enzo Life Sciences BML-AK518
T2 sequence (Q9BY41 1-377): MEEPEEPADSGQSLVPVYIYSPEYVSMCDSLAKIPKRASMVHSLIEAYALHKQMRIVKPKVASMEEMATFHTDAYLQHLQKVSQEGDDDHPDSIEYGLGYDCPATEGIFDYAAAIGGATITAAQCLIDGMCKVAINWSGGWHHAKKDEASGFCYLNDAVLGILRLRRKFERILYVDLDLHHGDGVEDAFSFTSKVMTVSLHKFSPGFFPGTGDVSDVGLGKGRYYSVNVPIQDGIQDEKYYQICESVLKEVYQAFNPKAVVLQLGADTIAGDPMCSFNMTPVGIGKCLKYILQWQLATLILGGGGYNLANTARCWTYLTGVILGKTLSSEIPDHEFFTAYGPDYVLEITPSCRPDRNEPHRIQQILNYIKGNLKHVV

SiHa cells = assay: Cell viability by MTT assay; assay type: cell-based, human; details: 48 h
Description: (§1) SiHa cells were kindly donated by Dr. Nicolás Villegas Sepulveda from the Department of Molecular Biomedicine, […], México. SiHa cells were cultured in Dulbecco’s modified Eagle’s medium (DMEM Gibco, Life Technologies, Invitrogen, Sigma-Aldrich Co., Toluca City Mexico), supplemented with 10% fetal bovine serum (FBS, Biowest, Kansas City, MO, USA) and antibiotic and antimycotic agents (Gibco, Fisher Scientific UK Ltd, Loughborough, UK). The cultures were kept at 37 °C in a humidified atmosphere with 5% CO2.
(§2) After seeding 10 × 10^3 cells per well in transparent 96-well plates, the cells were incubated for 24 h in DMEM medium with FBS. Then, the cells were incubated with different concentrations of HO-AAVPA (0.5, 1.0, 1.5, 2.0, and 2.5 mM) and VPA (0.625, 1.25, 2.5, 5.0, and 7.5 mM). After 48 h of incubation, the supernatant was removed. Then, 20 μL of MTT solution (0.5 mg/mL) in buffer was added, and the cells were incubated at 37 °C for 4 h. After the MTT solution was removed from all the wells, the formazan salts were solubilized with 100 μL of DMSO, and the absorbance of each well was read at 550 nm on a spectrophotometer (Multiskan EX Microplate Photometer, Thermo Scientific, Mexico).

[3] = Cell viability by MTT assay; assay type: cell-based, human; details: human, SiHa cells, at 2.5 mM
Description: as §1, §2

HDAC6 = target: T3, HDAC6 (Homo sapiens, UniProt Q9UBN7); assay: Fluor de LYS HDAC6 inhibitory activity assay; assay type: biochemical
T3 construct: purchased Enzo Life Sciences BML-AK516
T3 sequence (Q9UBN7 1-1215): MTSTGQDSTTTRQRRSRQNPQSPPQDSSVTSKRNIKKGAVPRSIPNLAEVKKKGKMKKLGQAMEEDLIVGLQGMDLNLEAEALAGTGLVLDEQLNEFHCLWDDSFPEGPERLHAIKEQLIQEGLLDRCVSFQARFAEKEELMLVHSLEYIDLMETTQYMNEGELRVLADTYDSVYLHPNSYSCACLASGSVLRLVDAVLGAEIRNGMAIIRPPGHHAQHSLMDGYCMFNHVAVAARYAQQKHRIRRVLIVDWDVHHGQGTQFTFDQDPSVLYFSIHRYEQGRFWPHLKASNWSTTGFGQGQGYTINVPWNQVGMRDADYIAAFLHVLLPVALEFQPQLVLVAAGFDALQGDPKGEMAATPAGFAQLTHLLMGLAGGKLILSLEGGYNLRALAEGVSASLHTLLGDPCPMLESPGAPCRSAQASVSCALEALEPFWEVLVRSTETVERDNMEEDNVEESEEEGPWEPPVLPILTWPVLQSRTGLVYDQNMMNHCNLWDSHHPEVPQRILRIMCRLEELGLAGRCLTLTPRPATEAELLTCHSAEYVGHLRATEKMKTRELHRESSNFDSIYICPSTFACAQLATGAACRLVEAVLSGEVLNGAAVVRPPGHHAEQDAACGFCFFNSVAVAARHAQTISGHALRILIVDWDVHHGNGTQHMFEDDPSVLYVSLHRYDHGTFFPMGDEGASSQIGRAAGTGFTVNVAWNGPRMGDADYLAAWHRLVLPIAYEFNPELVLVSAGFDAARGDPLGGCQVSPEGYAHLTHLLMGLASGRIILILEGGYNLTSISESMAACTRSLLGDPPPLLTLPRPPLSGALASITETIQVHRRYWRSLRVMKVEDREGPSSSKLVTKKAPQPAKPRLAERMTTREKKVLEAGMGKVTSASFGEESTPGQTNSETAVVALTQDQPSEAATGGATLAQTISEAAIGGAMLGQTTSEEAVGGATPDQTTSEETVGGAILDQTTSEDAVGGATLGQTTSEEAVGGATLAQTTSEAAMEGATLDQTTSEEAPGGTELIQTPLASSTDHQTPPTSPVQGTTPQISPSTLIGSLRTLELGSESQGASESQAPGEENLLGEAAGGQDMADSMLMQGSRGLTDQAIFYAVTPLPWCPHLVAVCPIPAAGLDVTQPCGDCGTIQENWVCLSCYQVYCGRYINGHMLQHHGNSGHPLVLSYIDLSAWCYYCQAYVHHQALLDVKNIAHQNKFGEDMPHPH

T1 sequence (Q13547 whole entry): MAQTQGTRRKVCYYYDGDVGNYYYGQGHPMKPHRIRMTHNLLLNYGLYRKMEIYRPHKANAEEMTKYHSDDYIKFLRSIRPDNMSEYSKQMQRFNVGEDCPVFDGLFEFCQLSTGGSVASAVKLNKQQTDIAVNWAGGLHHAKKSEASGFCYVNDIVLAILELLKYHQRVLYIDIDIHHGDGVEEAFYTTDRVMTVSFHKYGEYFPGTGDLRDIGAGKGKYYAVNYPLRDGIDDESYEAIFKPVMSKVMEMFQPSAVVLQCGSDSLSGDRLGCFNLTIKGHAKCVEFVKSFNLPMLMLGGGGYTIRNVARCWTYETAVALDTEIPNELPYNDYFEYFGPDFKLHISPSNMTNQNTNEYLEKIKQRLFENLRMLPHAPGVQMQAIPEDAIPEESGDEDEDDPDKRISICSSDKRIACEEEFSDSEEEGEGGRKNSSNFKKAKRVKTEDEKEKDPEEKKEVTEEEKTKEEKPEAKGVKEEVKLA

IC50 (HDAC1)	IC50 (HDAC8; 1 U/well, 30 °C, 50 µM substrate, mean ± SE)	IC50 (HDAC6; 400 ng/well, 37 °C, 12 µM substrate, mean ± SE)	Structure (SMILES)	HMGB1 localization (HMGB1 in SiHa cells; HO-AAVPA 0.2 mM, VPA 1.4 mM)	HMGB1 fluorescence intensity (HMGB1 in SiHa cells; HO-AAVPA 0.2 mM, VPA 1.4 mM)	concentration that did not produce significant effect on the proliferation (cervical cancer cells; cervical cancer cells)	concentration with cytotoxic effects (cervical cancer cells; other studies)	half-life [1]	ROS (O2−·) production ([2]; 0.2 mM)	ROS (O2−·) production ([2]; 1.4 mM)	HMGB1 localization (HMGB1 in SiHa cells; low concentrations: HO-AAVPA 0.005 mM, VPA 0.35 mM)	inhibitory activity on HDAC8 (HDAC8; tested at 1-1000 µM)	concentration causing cell death (SiHa cells; concentration-dependent)	IC50 (SiHa cells; Homo sapiens, SiHa, MTT)	viability at 48 h, 2.5 mM [3]	inhibitory activity on HDAC6 (HDAC6; tested at 1-1000 µM)
			CCCC(CCC)C(=O)O [VPA, valproic acid, reference compound]	HMGB1 is expressed in a larger amount in the nucleus; also recorded: observed predominantly in the nucleus	increase in the fluorescence was more; also recorded: significant increase of HMGB1	1 mM	~3000 µM	1 h	did not have a significant difference in ROS production	did not have a significant difference in ROS production						
153 µM and 154 µM	> 1000 µM	> 1000 µM	CCCC(CCC)C(=O)Nc1ccccc1O [HO-AAVPA, N-(2′-hydroxyphenyl)-2-propylpentanamide]	high amount of HMGB1 in the cytoplasm than in the nucleus; also recorded: greater intensity of translocation of HMGB1 from the nucleus to the cytoplasm	increase in the fluorescence was more; also recorded: significant increase of HMGB1; also recorded: statistically higher			4 h	slightly lower, but still higher than the control	ROS production was greater; also recorded: increased	more HMGB1 in the cytoplasm than VPA	no inhibitory activity; also recorded: no inhibition was observed	≥ 1 mM	1600 µM	~25%	no inhibitory activity; also recorded: no inhibition was observed
